Columns and labels:
Assay type in all cases: cell-based
GST-SipA27-270 [1] = target: T1, GST-SipA27-270 (Salmonella enterica, UniProt E1WAC6); assay: click chemistry labelling, in-gel fluorescence; details: covalent (suggested; survives SDS and 100 °C); labelled compound; compound added to E. coli culture during expression, 20 °C, 16 h; possibly a cellular derivative binds
T1 construct: gene sipA

GST-SipA497-669 [2] = target: T2, GST-SipA497-669 (Salmonella enterica, UniProt E1WAC6); assay: click chemistry labelling, in-gel fluorescence; details: covalent (suggested; survives SDS and 100 °C); labelled compound; compound added to E. coli culture during expression, 20 °C, 16 h; possibly a cellular derivative binds
T2 construct: gene sipA; residues 497-669 (actin nucleation domain), N-terminal GST (pGEX-6p-1) kept, expressed in E. coli BL21(DE3), glutathione-Sepharose purified
T2 sequence (E1WAC6 497-669 limits assumed): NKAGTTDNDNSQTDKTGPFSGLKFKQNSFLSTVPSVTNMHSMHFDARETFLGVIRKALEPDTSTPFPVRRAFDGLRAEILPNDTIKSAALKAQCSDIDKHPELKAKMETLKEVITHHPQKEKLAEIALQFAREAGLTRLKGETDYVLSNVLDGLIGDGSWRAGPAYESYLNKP

GST-SipA497-669 [3] = target: T2, GST-SipA497-669; assay: circular dichroism of purified protein from thymol-exposed cells; details: thymol present in E. coli culture during expression; protein 7.3 uM in PBS, 25 °C
GST-SipA27-270 [4] = target: T1, GST-SipA27-270; assay: as above; details: thymol present in E. coli culture during expression; protein 7.9 uM in PBS, 25 °C

T1 sequence (E1WAC6 27-270): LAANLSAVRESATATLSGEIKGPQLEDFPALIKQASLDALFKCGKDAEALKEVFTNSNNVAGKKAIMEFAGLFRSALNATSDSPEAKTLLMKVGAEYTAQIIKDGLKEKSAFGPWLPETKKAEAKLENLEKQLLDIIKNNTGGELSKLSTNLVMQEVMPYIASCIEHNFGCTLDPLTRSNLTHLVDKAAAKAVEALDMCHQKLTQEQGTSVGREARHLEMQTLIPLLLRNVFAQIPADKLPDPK

Row | SMILES | click chemistry labelling, in-gel fluorescence (GST-SipA27-270 [1]) | click chemistry labelling, in-gel fluorescence (GST-SipA497-669 [2]) | circular dichroism of purified protein from thymol-exposed cells (GST-SipA497-669 [3]) | circular dichroism of purified protein from thymol-exposed cells (GST-SipA27-270 [4])
1 | C#CCOc1cc(C)ccc1C(C)C [alkyne-thymol] | Fluorescence signals were detected only in samples receiving alkyne-thymol | Fluorescence signals were detected only in samples receiving alkyne-thymol | – | –
2 | Cc1ccc(C(C)C)c(O)c1 [thymol] | – | – | proteins purified from cells treated with thymol exhibited significant changes in their CD spectra | proteins purified from cells treated with thymol exhibited significant changes in their CD spectra

Source: article PMC8427694, “The Herbal Compound Thymol Targets Multiple Salmonella Typhimurium Virulence Factors for Lon Protease Degradation” (Frontiers in Pharmacology, 2021)
